Laboratory results reported in patent US20080096967A1, “Formulations for Injection of Catecholic Butanes, Including Ndga Compounds, Into Animals” (priority 2005, published 2008).

Assays:
Beagle dogs = settings: dog, in vivo
Experimental: A single male dog was administered M4N (12.5 mg/mL) in 20% HP-β-CD/50% PEG 300 via IV infusion (10 mL/kg/hour). Increased pressure in the infusion line and test formulation leakage from the syringe occurred. […] Because the observations were considered severe, the animal was considered moribund and scheduled for euthanization.
The dog recovered within 1 hour and 15 minutes of dosing and presented no continued or additional adverse clinical signs.
An additional male and female were dosed at 150 mg/kg and then at 125 mg/kg. […] Both animals recovered within 1 hour of dosing and no additional important clinical signs were subsequently noted.
Two extra (naïve) dogs were added to the study design and dosed at 75 mg/kg/day at an infusion rate of 5 mL/kg/hour, for a total of 12 doses in a 13-day interval. […] Clinical observations included soft feces in the male and frothy white emesis in the female; these findings were infrequent or isolated incidences and are considered unrelated to treatment. […] Both dogs recovered from any noted clinical signs within 1 hour of dosing. […] No other treatment-related observations were noted.

[1] = Solubility of M4N in non-ionic surfactants (Table 21, visual inspection); format: physicochemical
Experimental: A 10 mL solution of M4N at a concentration of about 60 mg/mL in Tween® 20 was made as follows. About 10 mL of Tween® 20 were added to a glass beaker containing a stir bar. The beaker was placed on a magnetic plate and the stir bar was set to stir at medium speed. About 600 mg of M4N were slowly added to the Tween® 20 in the center of the beaker with the aid of a spatula to prevent M4N from sticking to the beaker wall. The M4N/Tween® 20 mixture was stirred for 2 hr or until all M4N had dissolved or was uniformly suspended without any clumps being present. The M4N/Tween® 20 mixture was heated at about 60° C. for about 30 min. (or longer if a larger volume of solution was desired, for example, 1 hr at 60° C. for 500 mL of the M4N/Tween® 20 mixture), or longer as need to ensure complete dissolution of M4N. […] The final M4N/Tween® 20 solution was stored at room temperature and was kept protected from light. If crystals were to form during storage, the M4N/Tween® 20 solution could be heated again at 60° C. for about 1 hr, with stirring, on a hot magnetic plate or until all M4N was dissolved back in solution.
This process may be scaled up or down to obtain the requisite volume or concentration of M4N and the heating temperature may be increased or decreased to achieve dissolution of M4N. Formulations containing M4N in other non-ionic surfactant, ionic surfactants or amphiphilic molecules may be similarly made, such as, for example, by substituting Tween® 20 in the process described above with Tween® 80, other solubilizing agents, and combinations thereof.

## COc1ccc(C[C@@H](C)[C@@H](C)Cc2ccc(OC)c(OC)c2)cc1OC [Formulation M4N, meso-1,4-bis(3,4-dimethoxyphenyl)-2,3-dimethylbutane]
Beagle dogs
  clinical signs following dosing: uncoordinated/unbalanced movements and frequent urination
  notable post dose observation: single observation of red-brown urine in the female on SD 7
  time to recovery after dosing: 1 h and 0.25 h
[1]; 50% Tween ® 20, 50% PEG 400, M4N 30 mg/mL
  Stability at Room Temperature: >3 days
[1]; 50% Tween ® 20, 50% PEG 400, M4N 30 mg/mL, heating at 65° C.
  Dissolution After Heating: Y at 65 °C
[1]; 50% Tween ® 20, 50% PEG 400, M4N 40 mg/mL
  Stability at Room Temperature: >3 days
[1]; 50% Tween ® 20, 50% PEG 400, M4N 40 mg/mL, heating at 65° C.
  Dissolution After Heating: Y at 65 °C
[1]; 50% Tween ® 20, 50% PEG 400, M4N 50 mg/mL
  Stability at Room Temperature: >3 days
[1]; 50% Tween ® 20, 50% PEG 400, M4N 50 mg/mL, heating at 65° C.
  Dissolution After Heating: Y at 65 °C
[1]; 50% Tween ® 20, 50% PEG 400, M4N 60 mg/mL
  Stability at Room Temperature: >3 days
[1]; 50% Tween ® 20, 50% PEG 400, M4N 60 mg/mL, heating at 65° C.
  Dissolution After Heating: Y at 65 °C
[1]; 50% Tween® 20 and 50% PEG 400, after cooling
  stable at room temperature: more than 3 days
[1]; Tween ® 20 100% (v/v), M4N 1 mg/mL
  Stability at Room Temperature: >7 days
[1]; Tween ® 20 100% (v/v), M4N 10 mg/mL
  Stability at Room Temperature: >7 days
[1]; Tween ® 20 100% (v/v), M4N 10 mg/mL, heating at 50° C.
  Dissolution After Heating: Y at 50 °C
[1]; Tween ® 20 100% (v/v), M4N 20 mg/mL
  Stability at Room Temperature: >7 days
[1]; Tween ® 20 100% (v/v), M4N 20 mg/mL, heating at 50° C.
  Dissolution After Heating: Y at 50 °C
[1]; Tween ® 20 100% (v/v), M4N 40 mg/mL
  Stability at Room Temperature: <3 days
[1]; Tween ® 20 100% (v/v), M4N 40 mg/mL, heating at 50° C.
  Dissolution After Heating: Y at 50 °C
[1]; Tween ® 20 100% (v/v), M4N 60 mg/mL
  Stability at Room Temperature: <3 days
[1]; Tween ® 20 100% (v/v), M4N 60 mg/mL, heating at 50° C.
  Dissolution After Heating: Y at 50 °C
[1]; Tween ® 20 100% (v/v), M4N 80 mg/mL, heating at 50° C.
  Dissolution After Heating: Y at 50 °C
[1]; Tween ® 20 100% (v/v), M4N 100 mg/mL, heating at 50° C.
  Dissolution After Heating: Y at 50 °C
[1]; Tween ® 80 100% (v/v), M4N 1 mg/mL
  Stability at Room Temperature: >3 days
[1]; Tween ® 80 100% (v/v), M4N 10 mg/mL
  Stability at Room Temperature: >3 days
[1]; Tween ® 80 100% (v/v), M4N 10 mg/mL, heating at 50° C.
  Dissolution After Heating: Y at 50 °C
[1]; Tween ® 80 100% (v/v), M4N 50 mg/mL
  Stability at Room Temperature: <1 days
[1]; Tween ® 80 100% (v/v), M4N 50 mg/mL, heating at 50° C.
  Dissolution After Heating: Y at 50 °C
[1]; Tween® 20, M4N 1 mg/mL
  stable at room temperature: more than 7 days
[1]; Tween® 20, M4N 10 mg/mL and 20 mg/mL
  stable at room temperature: more than 7 days
[1]; Tween® 20, M4N 40 mg/mL and 80 mg/mL
  stable at room temperature: less than 3 days
[1]; Tween® 20, M4N 80 mg/mL and 100 mg/mL
  solution upon cooling: becoming insoluble upon cooling
[1]; Tween® 20, dissolved at 50° C.
  concentrations at which M4N remained in solution after cooling: up to 60 mg/mL
[1]; Tween® 80, M4N 1 mg/mL
  stable at room temperature: more than 3 days
[1]; Tween® 80, M4N 10 mg/mL
  stable at room temperature: more than 3 days
[1]; Tween® 80, M4N 50 mg/mL
  stable at room temperature: less than 1 day
[1]; Tween® 80, dissolved at 50° C.
  concentrations at which M4N remained in solution after cooling: up to 50 mg/mL
